According to patent US11653649B2, “Antimicrobial composition including a dihydroxamic acid and methods of inhibiting microbial growth utilizing the same” (Kimberly-Clark Worldwide, Inc., priority 2017, dated 2023):
Marks after values point to notes of the source that are not given here.

Experiments:
[1] = test system: Pseudomonas aeruginosa (ATCC 9027); experiment: Anti-bacterial MIC, microbroth dilution; format: cell-based; conditions: for MIC v. P. aeruginosa: Tables 4 and 5, rounded values, wt %; for MIC (%) P. aeruginosa: pH 4.5, CAMHB, 37° C., 24 hours
Method: (§1) Method: Microbroth Dilution Method (96-well format).
(§2) Solvent: Sterile MilliQ water and 0.1 M Citrate Buffer pH 4.5
(§3) Media used: • Bacterial: Cation-Adjusted Mueller-Hinton Broth (CAMHB) • Fungi: RPMI-1640
(§4) Bacteria • Incubation Temperature: 37° C. • Incubation Time: 24 hours • Inoculum Size: 5×10(5) cfu/mL • Strains: • Staphylococcus aureus (ATCC 6538) • Escherichia coli (ATCC 8739) • Pseudomonas aeruginosa (ATCC 9027) • Burkholderia cepacia (ATCC 25416)
(§5) Fungi: • Incubation Temperature: • 25° C. (Candida albicans) • 35° C. […] . All solubilized and pH 4.5-adjusted test compounds were filter-sterilized before subjecting to MIC study. Positive control was also dissolved in the similar way. […] All the strains were inoculated on their respective agar medium and incubated under conditions/durations detailed above. • Preparation of inoculum: • The bacterial colony suspension in 0.85% saline was adjusted to 1 McFarland's standard using Densimat which was further diluted to 1:100 in CAMHB. The fungal suspension for inoculation was prepared in 0.85% saline from 6 days old culture (for mold, A. brasiliensis) and from 2 days old culture (for yeast, C. albicans) from Sabouraud Dextrose agar medium. Culture was scrapped/scooped from the plate, suspended in saline and the spores/cells counted using haemocytometer to provide a final inoculum of 5×10^4 cfu/mL. • 96-well Plate Preparation: • Minimum inhibitory concentration (MIC) is performed to determine potency of test compounds along with standard antibiotics against bacterial strains. Micro titer plates were prepared as per the CLSI recommendations. One hundred and seventy five microliters of Cation-adjusted Muller Hinton Broth (CAMHB) was added to the first column of a 96 well flat bottom plate, which is the media control. Second column is for the stocks of the test compounds and reference standards from which dilutions are made. Then 175 μL of CAMHB was added to the 5th, 8th and 11th columns, 75 μL of CAMHB to the 4th, 7th and 10th columns and 50 μL of CAMHB to the 3rd, 6th and 9th columns and the last column was the organism control. Antimicrobial Efficacy Testing

[2] = Determination of Aqueous Solubility (pH-4.5) by Miniaturized Shake Flask Method; format: physicochemical; conditions: ultrapure water pH 4.5, 22° C., highest test concentration 1% w/v
Method: Determination of Aqueous Solubility (pH-4.5) by Miniaturized Shake Flask Method
Test Media: Ultrapure water (pH-4.5) (18MΩDl water)
Test Concentration: 10 mg/ml
Incubation Details: 22° C. +/−3° C.
Method of Analysis: Photometric analysis using Microplate reader
Data Output: Aqueous Solubility
Required volume of ultrapure water (˜75 mL) was taken and pH was adjusted to 4.5 using citrate buffer (pH-4.5). This water was used as a test media for determining the solubility of test/reference items.
Solubility Testing by Shake Flask Method
The solubility of test items were determined at a highest test concentration of 1% w/v (10 mg/mL).
40 mg of test items were weighed into tubes.
4 mL of Ultrapure water was added to all tubes to get a concentration of 10 mg/mL (1% w/v).
The initial pH of the solubility samples were recorded. […] Then, the solution were observed visually for any precipitation.
The visually soluble samples were centrifuged at 10000 rpm for 10 minutes at room temperature (22° C.±3° C.).
An aliquot of the supernatant were diluted with equal volume of methanol. The samples were further diluted in methanol: water (50:50) to obtain dilution of 1:2, 1:4, 1:16, 1:32 etc.
The samples were then transferred to UV plate and scanned at Amax of that particular test/reference item.

[3] = test system: Burkholderia cepacia (ATCC 25416); experiment: Anti-bacterial MIC, microbroth dilution; format: cell-based; conditions: pH 4.5, CAMHB, 37° C., 24 hours
Method: as §1, §2, §3, §4, §5

[4] = test system: Escherichia coli (ATCC 8739); experiment: Anti-bacterial MIC, microbroth dilution; format: cell-based; conditions: pH 4.5, CAMHB, 37° C., 24 hours
Method: as §1, §2, §3, §4, §5

[5] = test system: Staphylococcus aureus (ATCC 6538); experiment: Anti-bacterial MIC, microbroth dilution; format: cell-based; conditions: pH 4.5, CAMHB, 37° C., 24 hours
Method: as §1, §2, §3, §4, §5

[6] = test system: Aspergillus brasiliensis (ATCC 16404); experiment: Anti-fungal MIC, microbroth dilution; format: cell-based; conditions: pH 4.5, RPMI-1640, 35° C., 48 hours
Method: as §1, §2, §3, §5

[7] = test system: Candida albicans (ATCC 10231); experiment: Anti-fungal MIC, microbroth dilution; format: cell-based; conditions: pH 4.5, RPMI-1640, 25° C., 48 hours
Method: as §1, §2, §3, §5

[8] = test system: various bacteria and fungi; experiment: Antimicrobial Efficacy Testing (USP 51), overall outcome; format: cell-based; conditions: USP 51, 28 days
Description: The Antimicrobial Efficacy Testing discussed herein was completed pursuant to the standard antimicrobial effectiveness test from Chapter 51 of the United States Pharmacopeia (USP 51), in which an antimicrobial composition can be tested against at least five microorganisms, including bacteria and fungi. In the Antimicrobial Efficacy Testing conducted herein, the following bacteria were utilized: Staphylococcus aureus, Escherichia coli, Pseudomonas aeruginosa, and Burkholderia cepacia; and the following fungi were utilized: Candida albicans, and Aspergillus brasiliensis. While one of ordinary skill in the art could replicate such Antimicrobial Efficacy Testing by completing USP 51 protocol, a brief summary was that each antimicrobial composition sample was tested against each microorganism being held at room temperature over the course of 28 days, with each sample being evaluated at specific intervals at the beginning of the Testing (initial), day 7, day 14, and day 28. The test sample colonies were counted at each interval to determine the number of surviving microorganisms. The log reduction of each microorganism at each interval was reported. The effectiveness of the antimicrobial agent sample was based on the USP 51 passing criteria.

In the case of `O=[N+]([O-])C(Br)(CO)CO` [2-Bromo-2-Nitropropane-1,3-Diol, reference compound], the “MIC v. P. aeruginosa” value [1] is reported as 0.00%.
For `O=C(O)c1ccccc1` [Benzoic Acid, reference compound], the “MIC v. P. aeruginosa” value [1] was 0.07%.
For `OCc1ccccc1` [Benzyl Alcohol, reference compound], the “MIC v. P. aeruginosa” value [1] was 0.35%.
For `CCCCCCCC(=O)NO` [Caprylhydroxamic Acid, reference compound], the “Solubility (wt %)” value [2] was 0.1358 wt %, the “MIC (%) B. cepacia” value [3] was 0.017% and the “MIC (%) E. coli” value [4] was 0.017%. The “MIC v. P. aeruginosa” value [1] was 0.07%, the “MIC (%) P. aeruginosa” value [1] was 0.0679% and the “MIC (%) S. Aureus” value [5] was 0.034%. The “MIC (%) A. brasiliensis” value [6] was 0.004% and the “MIC (%) C. albicans” value [7] was 0.008%.
For `CCCCCC(=O)NO` [Compound No. 1, Hexylhydroxamic Acid], the “Solubility (wt %)” value [2] was >1.00 wt %, the “MIC (%) B. cepacia” value [3] was 0.0625% and the “MIC (%) E. coli” value [4] was 0.125%. The “MIC v. P. aeruginosa” value [1] was 0.06%, the “MIC (%) P. aeruginosa” value [1] was 0.0625% and the “MIC (%) S. Aureus” value [5] was 0.25%. For the same compound, the “MIC (%) A. brasiliensis” value [6] was 0.008% and the “MIC (%) C. albicans” value [7] was 0.031%.
In the case of `CCCCCCCCCC(=O)NO` [Compound No. 3, Decylhydroxamic Acid], the “Solubility (wt %)” value [2] is reported as 0.0025 wt %, the “MIC (%) B. cepacia” value [3] is reported as >0.00125* % and the “MIC (%) E. coli” value [4] is reported as >0.00125* %. For the same compound, the “MIC v. P. aeruginosa” value [1] was >0.00125%*, the “MIC (%) P. aeruginosa” value [1] was >0.00125* % and the “MIC (%) S. Aureus” value [5] was >0.00125* %. The “MIC (%) A. brasiliensis” value [6] was >0.00125* % and the “MIC (%) C. albicans” value [7] was >0.00125* %.
For `O=C(NO)c1ccccc1` [Compound No. 5, Benzhydroxamic Acid], the “Solubility (wt %)” value [2] was >1.00 wt %, the “MIC (%) B. cepacia” value [3] was 0.125% and the “MIC (%) E. coli” value [4] was 0.25%. The “MIC v. P. aeruginosa” value [1] was 0.06%, the “MIC (%) P. aeruginosa” value [1] was 0.0625% and the “MIC (%) S. Aureus” value [5] was 0.125%. The “MIC (%) A. brasiliensis” value [6] was 0.016% and the “MIC (%) C. albicans” value [7] was 0.031%.
With `O=C(NO)c1ccc(O)cc1` [Compound No. 6, p-hydroxy Benzhydroxamic Acid] the “Solubility (wt %)” value [2] was >1.00 wt %, the “MIC (%) B. cepacia” value [3] was 0.031% and the “MIC (%) E. coli” value [4] was 0.0625%. The “MIC v. P. aeruginosa” value [1] was 0.06%, the “MIC (%) P. aeruginosa” value [1] was 0.0625% and the “MIC (%) S. Aureus” value [5] was 0.125%. For the same compound, the “MIC (%) A. brasiliensis” value [6] was 0.25% and the “MIC (%) C. albicans” value [7] was >1.00* %.
For `O=C(CC(O)C(=O)NO)NO` (stereo not shown) [Compound No. 7, N, N′, 2-trihydroxy butane diamide], the “Solubility (wt %)” value [2] was >1.00 wt %, the “MIC (%) B. cepacia” value [3] was 0.016% and the “MIC (%) E. coli” value [4] was 0.016%. The “MIC v. P. aeruginosa” value [1] was 0.03%, the “MIC (%) P. aeruginosa” value [1] was 0.031% and the “MIC (%) S. Aureus” value [5] was 0.008%. For the same compound, the “MIC (%) A. brasiliensis” value [6] was 0.008% and the “MIC (%) C. albicans” value [7] was 0.008%.
In the case of `O=C(CCC(=O)NO)NO` [Compound No. 8, N, N′-dihydroxysuccinamide], the “Solubility (wt %)” value [2] is reported as >1.00 wt %, the “MIC (%) B. cepacia” value [3] is reported as 0.031% and the “MIC (%) E. coli” value [4] is reported as 0.031%. The “MIC v. P. aeruginosa” value [1] was 0.06%, the “MIC (%) P. aeruginosa” value [1] was 0.0625% and the “MIC (%) S. Aureus” value [5] was 0.016%. For the same compound, the “MIC (%) A. brasiliensis” value [6] was 0.031% and the “MIC (%) C. albicans” value [7] was 0.25%.
With `O=C(CCCCCCC(=O)NO)NO` [Compound No. 9, N, N′-dihydroxyoctanediamide] the “Solubility (wt %)” value [2] was 0.248 wt %, the “MIC (%) B. cepacia” value [3] was >0.124* % and the “MIC (%) E. coli” value [4] was >0.124* %. The “MIC v. P. aeruginosa” value [1] was >0.12%*, the “MIC (%) P. aeruginosa” value [1] was >0.124* % and the “MIC (%) S. Aureus” value [5] was >0.124* %. The “MIC (%) A. brasiliensis” value [6] was >0.124* %, the “MIC (%) C. albicans” value [7] was >0.124* % and the “Antimicrobial Efficacy Testing outcome (inhibiting growth of various bacteria and fungi)” value [8] was “did not pass”.
With `CC1(C)C(=O)N(CO)C(=O)N1CO` [DMDM Hydantoin, reference compound] the “MIC v. P. aeruginosa” value [1] was 0.02%.
For `CC(=O)C1C(=O)C=C(C)OC1=O` (stereo not shown) [Dehydroacetic Acid, reference compound], the “MIC v. P. aeruginosa” value [1] was 2.00%.
In the case of `O=C(NCO)N(CO)C1(CO)C(=O)NC(=O)N1CO` (stereo not shown) [Diazolidinyl Urea, reference compound], the “MIC v. P. aeruginosa” value [1] is reported as 0.10%.
For `Cn1sccc1=O` [Methylisothiazolinone, reference compound], the “MIC v. P. aeruginosa” value [1] was 0.00%.
In the case of `COC(=O)c1ccc(O)cc1` [Methylparaben, reference compound], the “MIC v. P. aeruginosa” value [1] is reported as 0.20%.
With `OCCc1ccccc1` [Phenethyl Alcohol, reference compound] the “MIC v. P. aeruginosa” value [1] was 0.41%.
With `CCCCCCCCCCCC(=O)NO` [compound 2, Laurylhydroxamic Acid] the “Solubility (wt %)” value [2] was 0.0022 wt %, the “MIC (%) B. cepacia” value [3] was >0.0011* % and the “MIC (%) E. coli” value [4] was >0.0011* %. The “MIC (%) P. aeruginosa” value [1] was >0.0011* %, the “MIC (%) S. Aureus” value [5] was >0.0011* % and the “MIC (%) A. brasiliensis” value [6] was >0.0011* %. For the same compound, the “MIC (%) C. albicans” value [7] was >0.0011* %.
For “Propylhydroxamic Acid [reference compound]”, the “MIC v. P. aeruginosa” value [1] was 0.50%.
